Tests used:
[1] = target: T1, aconitase (Saccharomyces cerevisiae, UniProt P19414); assay: Aconitase activity in lysates of treated Saccharomyces cerevisiae BY4741 cultures (Bioxytech Aconitase-340 kit); assay type: cell-based; details: for Aconitase Activity, % of Untreated Control: S. cerevisiae BY4741 in YPD, incubated overnight, cell lysate, negative activity reported as 0; for Aconitase inhibition (in words): culturing of cells in the presence of the material, effective = inhibition by 70% or more
T1 construct: endogenous in cells; host or cells: Saccharomyces cerevisiae strain BY4741
T1 sequence (P19414 17-778): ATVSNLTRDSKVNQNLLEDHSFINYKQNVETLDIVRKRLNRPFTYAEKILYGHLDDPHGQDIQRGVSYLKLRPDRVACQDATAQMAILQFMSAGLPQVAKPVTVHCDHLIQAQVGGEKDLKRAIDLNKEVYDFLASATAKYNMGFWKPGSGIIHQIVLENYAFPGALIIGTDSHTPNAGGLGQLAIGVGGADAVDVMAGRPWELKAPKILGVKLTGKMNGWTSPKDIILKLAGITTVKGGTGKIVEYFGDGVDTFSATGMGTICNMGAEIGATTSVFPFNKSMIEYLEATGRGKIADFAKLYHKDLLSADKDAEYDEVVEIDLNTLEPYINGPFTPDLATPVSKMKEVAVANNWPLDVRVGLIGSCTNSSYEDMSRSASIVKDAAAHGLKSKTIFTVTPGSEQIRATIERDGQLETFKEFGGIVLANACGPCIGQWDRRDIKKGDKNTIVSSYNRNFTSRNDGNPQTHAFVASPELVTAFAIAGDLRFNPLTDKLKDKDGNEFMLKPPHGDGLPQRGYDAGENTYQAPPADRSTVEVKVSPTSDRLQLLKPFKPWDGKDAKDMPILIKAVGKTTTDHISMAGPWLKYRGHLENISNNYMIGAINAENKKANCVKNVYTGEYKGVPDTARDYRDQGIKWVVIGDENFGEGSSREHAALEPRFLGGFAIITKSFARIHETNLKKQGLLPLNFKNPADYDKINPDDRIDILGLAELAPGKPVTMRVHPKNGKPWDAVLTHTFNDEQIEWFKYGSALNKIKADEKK
Method: Cultures of Saccharomyces cerevisiae strain BY4741 are grown in YPD (20 grams glucose, 20 grams peptone, 10 grams yeast extract per liter) broth overnight at 30°. The cultures are diluted with YPD to a total volume of 100 mls with an optical density (600 nm) of 0.1. The cultures are incubated with shaking until reaching an optical density of 0.2, whereupon the test material is added. The cultures are incubated overnight, and the cells are pelleted by centrifugation. The cell pellet is washed with 100 mM NaCl, 20 mM Tris pH 7.4 and resuspended in 5 ml of 100 mM NaCl, 20 mM Tris pH 7.4. Glass beads (0.5 mm) is added. The sample is alternately vortexed for one minute and incubated on ice for one minute, with a total of ten treatments. After centrifugation, the supernatant is collected. In a 96-well plate (UV-transparent Corning 3679 plate), 30 μl of cell lysate is mixed with 20 μl 100 mM NaCl, 20 mM Tris pH 7.4 and assayed using a Bioxytech Aconitase-340 kit (OxisResearch) according to instructions.
For the aconitase assay, samples are incubated for six minutes at 37°. The reaction rate is calculated based on the increase in optical density (340 nm) in the five-minute interval beginning one minute after the reaction started. The aconitase activity in lysates of treated samples is divided by the aconitase activity in lysates of untreated samples. If replicates were performed on samples, the reported data are a mean of the aconitase activity measurements of individual lysates of treated cells divided by the mean of the aconitase activity measurements of individual lysates of untreated cells. If the aconitase activity appears to be negative in lysates of treated cells, the value “0” is reported for aconitase activity (Table 1).

[2] = test system: Saccharomyces; details: minimal medium; by inhibition of glutamate and lysine synthesis

SMILES | Aconitase Activity, % of Untreated Control ([1]; 50 ppm test material) [%] | also measured
c1cnc2c(c1)ccc1cccnc12 [1,10-Phenanthroline] | 2 | 
Oc1cccc2cccnc12 [8-Hydroxyquinoline] | 15 | 
On1ccccc1=S.On1ccccc1=S.[Cu] [Copper Pyrithione (CuPT), Copper Pyrithione] |  | Aconitase Activity, % of Untreated Control ([1]; 5 ppm test material): 0%
O=C(O)CN(CCN(CC(=O)O)CC(=O)O)CC(=O)O [EDTA] | 36 | Aconitase inhibition (in words) [1]: not effective
CCCCCCCCOc1cccc(=O)n1O.NCCO [N-Hydroxy-6-octyloxypyridine-2(1H)one, ethanolamine salt] | 0 | 
Cc1cc(CC(C)CC(C)(C)C)n(O)c(=O)c1.NCCO (centres unmarked) [Piroctone Diamine (Octopirox), Piroctone Diamine] | 0 | 
O=S(=O)([O-])[O-].[Zn+2] [Zinc Sulfate] | 110 | 
[O-]n1ccccc1=S.[O-]n1ccccc1=S.[Zn+2] [Zinc pyrithione (ZPT), zinc salt of 1-hydroxy-2-pyridinethione] |  | Aconitase Activity, % of Untreated Control ([1]; 5 ppm test material): 0%; Aconitase inhibition (in words) [1]: aconitase inhibition; Growth inhibition (in words) [2]: inhibits growth

Source: patent US20130108610A1 (priority 2011, published 2013)
